The subject of data set [1] is HUVECS. Briefly: HUVEC cell viability (mts, absorbance 490 and 595 nm) after antisense with or without drug. The format is cell-based, human. As to the method:
HUVECS were grown for 2 days in wells after seeding at 1200 per well. Antisense oligonucleotide of Seq. ID No. 5 (4 μg/ml with lipofectin) was added in serum free medium and incubated with the cells for 4 hours. Then 100 μl of serum was added and incubation was continued overnight. The next day, 150 μl of drug solution in serum medium was added. After two days, 20 μl of mts solution was added and left for approximately 3 hours. Cell viability was determined as the difference between absorption at 490 and 595 nm.

The test system of data set [2] is HUVECS. As to conditions: by the induction of apoptosis; cited from earlier work.
Where [3] appears, read: Table 1, Drug alone (100 nM paclitaxel).
[4] abbreviates: Table 2, Drug alone (100 nM camptothecin).
Where [5] appears, read: Table 1 (paclitaxel series), AS 50 nM, no drug.
[6] abbreviates: Table 1 (paclitaxel series), AS 100 nM, no drug.
Where [7] appears, read: Table 1 (paclitaxel series), AS 200 nM, no drug.
Setting [8] is: Table 1, Drug (100 nM paclitaxel) + AS 50 nM.
The mark [9] stands for this setting: Table 1, Drug (100 nM paclitaxel) + AS 100 nM.
Where [10] appears, read: Table 1, Drug (100 nM paclitaxel) + AS 200 nM.
Setting [11] is: Table 2 (camptothecin series), AS 50 nM, no drug.
Setting [12] is: Table 2 (camptothecin series), AS 100 nM, no drug.
The mark [13] stands for this setting: Table 2 (camptothecin series), AS 200 nM, no drug.
Where [14] appears, read: Table 2, Drug (100 nM camptothecin) + AS 50 nM.
Where [15] appears, read: Table 2, Drug (100 nM camptothecin) + AS 100 nM.
Where [16] appears, read: Table 2, Drug (100 nM camptothecin) + AS 200 nM.
[17] abbreviates: Table 3 (doxorubicin series), AS 50 nM, no drug.
[18] abbreviates: Table 3 (doxorubicin series), AS 100 nM, no drug.
Where [19] appears, read: Table 3 (doxorubicin series), AS 200 nM, no drug.
Setting [20] is: Table 3, Drug (200 nM doxorubicin) + AS 50 nM.
Setting [21] is: Table 3, Drug (200 nM doxorubicin) + AS 100 nM.
Setting [22] is: Table 3, Drug (200 nM doxorubicin) + AS 200 nM.
The mark [23] stands for this setting: Table 3, Drug alone (200 nM doxorubicin).

As to `CC(=O)O[C@H]1C(=O)[C@@]2(C)[C@H]([C@H](OC(=O)c3ccccc3)[C@]3(O)C[C@H](OC(=O)[C@H](O)[C@@H](NC(=O)c4ccccc4)c4ccccc4)C(C)=C1C3(C)C)[C@]1(OC(C)=O)CO[C@@H]1C[C@@H]2O` [paclitaxel, reference compound], in the data set on HUVECS [1] (setting [3]), the “absorbance at 490 nm” value is reported as 0.53 and the “absorbance at 595 nm” value is on record as 0.12. The “concentration range that inhibits Huvecs” value with HUVECS [2] is “low nanomolar range”.

`CC[C@@]1(O)C(=O)OCc2c1cc1n(c2=O)Cc2cc3ccccc3nc2-1` [camptothecin, reference compound]: in the data set with HUVECS [1] (setting [4]), the “absorbance at 490 nm” value turned out to be 0.55 and the “absorbance at 595 nm” value stood at 0.07. Further, the “concentration range that inhibits Huvecs” value with HUVECS [2] is listed as “low nanomolar range”.

“AS: Antisense oligonucleotide of Seq. ID No. 5, reduces the effective amount of clusterin (antisense CAGCAGCAGAGTCTTCATCAT; listed as DNA, chemistry not given here)”: the “cell viability, response to antisense in the presence of drug versus absence” value is on record as “greater” in the data set on HUVECS [1] (FIG. 1, in the presence of 100 nM paclitaxel); “greater” in the data set with HUVECS [1] (FIG. 2, in the presence of 100 nM camptothecin); “greater” in the data set on HUVECS [1] (FIG. 3, in the presence of 200 nM doxorubicin). In addition, the “cell viability, response to antisense concentration” value with HUVECS [1] (FIG. 1, paclitaxel series) is “dose dependent response”; with HUVECS [1] (FIG. 2, camptothecin series), “dose dependent response”; in the data set on HUVECS [1] (FIG. 3, doxorubicin series), “dose dependent response”. The “absorbance at 490 nm” value in the data set with HUVECS [1] (setting [5]) was 0.66; in the data set on HUVECS [1] (setting [6]), 0.40; in the data set on HUVECS [1] (setting [7]) it was 0.28; in the data set on HUVECS [1] (setting [8]) it was 0.50; with HUVECS [1] (setting [9]) it was 0.24; with HUVECS [1] (setting [10]), 0.17. In addition, the “absorbance at 490 nm” value came to 0.66 with HUVECS [1] (setting [11]); 0.39 with HUVECS [1] (setting [12]); 0.21 in the data set on HUVECS [1] (setting [13]); 0.53 with HUVECS [1] (setting [14]); 0.31 with HUVECS [1] (setting [15]); 0.15 with HUVECS [1] (setting [16]). Moreover, the “absorbance at 490 nm” value in the data set on HUVECS [1] (setting [17]) is 0.66; in the data set on HUVECS [1] (setting [18]), 0.35; in the data set with HUVECS [1] (setting [19]), 0.22; with HUVECS [1] (setting [20]) it was 0.66; in the data set on HUVECS [1] (setting [21]), 0.32; in the data set on HUVECS [1] (setting [22]), 0.18. Moreover, the “absorbance at 595 nm” value is 0.04 in the data set with HUVECS [1] (setting [5]); 0.09 in the data set with HUVECS [1] (setting [6]); 0.07 in the data set on HUVECS [1] (setting [7]); 0.09 with HUVECS [1] (setting [8]); 0.04 in the data set with HUVECS [1] (setting [9]); 0.05 in the data set with HUVECS [1] (setting [10]). The “absorbance at 595 nm” value was 0.10 in the data set on HUVECS [1] (setting [11]); 0.06 in the data set with HUVECS [1] (setting [12]); 0.04 in the data set on HUVECS [1] (setting [13]); 0.07 in the data set on HUVECS [1] (setting [14]); 0.08 with HUVECS [1] (setting [15]); 0.05 in the data set with HUVECS [1] (setting [16]). In addition, the “absorbance at 595 nm” value in the data set with HUVECS [1] (setting [17]) is recorded as 0.07; with HUVECS [1] (setting [18]), 0.05; with HUVECS [1] (setting [19]), 0.04; in the data set on HUVECS [1] (setting [20]), 0.06; in the data set with HUVECS [1] (setting [21]) it was 0.04; in the data set on HUVECS [1] (setting [22]), 0.02.

With `COc1cccc2c1C(=O)c1c(O)c3c(c(O)c1C2=O)C[C@@](O)(C(=O)CO)C[C@@H]3O[C@H]1C[C@H](N)[C@H](O)[C@H](C)O1` [doxorubicin, reference compound], in the data set on HUVECS [1] (setting [23]), the “absorbance at 490 nm” value amounted to 0.74 and the “absorbance at 595 nm” value amounted to 0.08. In addition, the “concentration range that inhibits Huvecs” value with HUVECS [2] was “low nanomolar range”.

The values above are taken from patent US20040220131A1, “Method for treatment of cancerous angiogenic disorders” (The University of British Columbia, priority 2003, published 2004).
